In brackets after ≈: the same amount, converted by molar mass. Several values for one entry are separate records, joined by “and”; a condition that tells them apart may be missing. Equal entries are not always repeated.
Tests used:
CHIKV [1] = conditions: Vero A cells, cited from earlier work
CHIKV [2] = conditions: cited from earlier work
[3] = test system: CHIKV prototype strain S27; assay: Plaque assay of CHIKV-infected BHK-21 cells; assay type: cell-based, Chikungunya virus (CHIKV); conditions: for plaque numbers reduced: BHK-21 cells, CHIKV S27 MOI 0.01, 24 hpi
CHIKV E2 protein = assay: Flow cytometry of E2 protein expression in infected BHK-21 cells; assay type: cell-based, Chikungunya virus (CHIKV); conditions: for percentages of infected cells showing E2 expression reduced: flow cytometry, 24 h post treatment
[4] = test system: CHIKV envelope E2 glycoprotein; assay: Western blot of CHIKV E2 protein in infected BHK-21 cells; assay type: cell-based, Chikungunya virus (CHIKV); conditions: 24 h
CHIKV nsP2 RNA = assay: RT-PCR of CHIKV nsP2 RNA in infected BHK-21 cells; assay type: cell-based, Chikungunya virus (CHIKV); conditions: 24 h post treatment, normalized to GAPDH
CHIKV nsP2 protein = assay: Flow cytometry of nsP2 protein expression in infected BHK-21 cells; assay type: cell-based, Chikungunya virus (CHIKV); conditions: for numbers of cells expressing nsP2 protein reduced: flow cytometry, 24 h post treatment
[5] = test system: CHIKV nonstructural protein nsP2; assay: Western blot of CHIKV nsP2 protein in infected BHK-21 cells; assay type: cell-based, Chikungunya virus (CHIKV); conditions: 24 h
[6] = MTT cellular cytotoxicity assay; assay type: cell-based; conditions: hamster, BHK-21 cells
BHK-21 cells = assay: Microscopic observation of cell morphology; assay type: cell-based, hamster; conditions: 5, 10 and 20 μM, 24 h, microscope
CHIKV E2 RNA = assay: RT-PCR of CHIKV E2 RNA in infected BHK-21 cells; assay type: cell-based, Chikungunya virus (CHIKV); conditions: 24 h post treatment, normalized to GAPDH
[7] = ribavirin treatment, concentration not given

For `CCN(CC)CCCC(C)Nc1ccnc2cc(Cl)ccc12` (centres unmarked) [Chloroquine], the IC50 (CHIKV [1]; read-out: IC50, inhibition of CHIKV replication) is listed as 7 µM, the IC90 (CHIKV [1]; read-out: IC90, inhibition of CHIKV replication) is listed as 15 µM and the “IC50, antiviral effects in vitro” value (CHIKV [2]) is listed as 1.1 µg/mL (≈ 3.44 µM).
For `Cn1c(=O)c(C(=O)CCN2CCOCC2)c(O)c2ccccc21` [QVIR, 4-hydroxy-1-methyl-3-(3-morpholinopropanoyl)quinoline-2(1H)-one], the plaque numbers reduced ([3]; 5 μM) was 82.62%, the plaque numbers reduced ([3]; 10 μM) was 97.86% and the plaque numbers reduced ([3]; 20 μM) was 99.61%. For the same compound, the EC50 ([3]; Chikungunya virus, BHK-21, 24 h, read-out: EC50 (50% effective concentration) against CHIKV infection) was 2.2 ± 0.49 µM, the “percentages of infected cells showing E2 expression reduced” value (CHIKV E2 protein; 5 μM) was 44.60% and the “percentages of infected cells showing E2 expression reduced” value (CHIKV E2 protein; 10 μM) was 51.22%. The “percentages of infected cells showing E2 expression reduced” value (CHIKV E2 protein; 20 μM) was 67.7%, the “E2 protein levels suppressed” value ([4]; 5 μM) was 22.8% and the “E2 protein levels suppressed” value ([4]; 10 μM) was 45.8%. For the same compound, the “E2 protein levels suppressed” value ([4]; 20 μM) was 53.9%, the “RNA levels of nsP2 decreased” value (CHIKV nsP2 RNA; 5 μM) was 52.1% and the “RNA levels of nsP2 decreased” value (CHIKV nsP2 RNA; 10 μM) was 67.5%. The “RNA levels of nsP2 decreased” value (CHIKV nsP2 RNA; 20 μM) was 84% and 84.1%, the “numbers of cells expressing nsP2 protein reduced” value (CHIKV nsP2 protein; 5 μM) was 43.25% and the “numbers of cells expressing nsP2 protein reduced” value (CHIKV nsP2 protein; 10 μM) was 54.04%. The “numbers of cells expressing nsP2 protein reduced” value (CHIKV nsP2 protein; 20 μM) was 71.48%, the “protein levels of nsP2 reduced” value ([5]; 10 μM) was 63.4% and the “protein levels of nsP2 reduced” value ([5]; 20 μM) was 69.9%. The CC50 at 24 h [6] was > 200 µM, the “morphological changes of BHK-21 cells” value (BHK-21 cells) was “inertness” and the “RNA levels of E2 diminished” value (CHIKV E2 RNA; 5 μM) was 39%. For the same compound, the “RNA levels of E2 diminished” value (CHIKV E2 RNA; 10 μM) was 55.6% and the “RNA levels of E2 diminished” value (CHIKV E2 RNA; 20 μM) was 74%.
In the case of `NC(=O)c1ncn([C@@H]2O[C@H](CO)[C@@H](O)[C@H]2O)n1` [Ribavirin, reference compound], the plaque numbers reduced ([3]; 10 μM) is reported as 99.15%, the “viral E2 protein level by flow cytometry” value (CHIKV E2 protein; [7]) is reported as “decreased” and the “RNA levels of nsP2 decreased” value (CHIKV nsP2 RNA; 10 μM) is reported as 82.7%. For the same compound, the “viral nsP2 protein level by flow cytometry” value (CHIKV nsP2 protein; [7]) was “decreased” and the “RNA levels of E2 diminished” value (CHIKV E2 RNA; 10 μM) was 75.8%.
In the case of `C=C[C@H]1C[N@@]2CC[C@H]1C[C@H]2[C@H](O)c1ccnc2ccc(OC)cc12` [quinine], the “IC50, inhibits CHIKV in vitro” value (CHIKV [2]) is listed as 0.1 µg/mL (≈ 0.308 µM).

Source: paper PMC8047676 (ACS Omega, 2021)
